# Experiments:
# Artemia salina = assay: Action against Artemia salina; format: in vivo; set-up: key: 0: nauplii not affected; 1: slight change; 1-2: nauplii affected; 2: nauplii severely affected; 2-3: almost all nauplii dead; 3: all nauplii dead
# From the text: Determination of the action against Artemia salina
# The commercially available eggs are caused to hatch under powerful aeration. […]
# Enterobacter aerogenes = assay: MIC against bacteria, strain C; format: cell-based; conditions: 24 h, 30° C., tested at 100 or 300 mg/liter
# Description: (§1) Determination of the minimum inhibitory concentration (MIC) against bacteria
# (§2) ONCs (cultures incubated overnight) of the bacteria strains A-F grown in Caso-Peptone broth (Merck) are each diluted […] in saline. An amount of the suspension is introduced into Caso-Peptone broth such that the bacteria are again diluted 1:1,000. The cultures are treated with 100 or 300 mg/liter of the phosphonium stannates shown in Table B. After incubation at 30° C. in a shaking water bath for 24 hours, the cultures are evaluated on the basis of cloudiness. The MIC is the concentration at which the broth is not clouded by bacterial growth.
# Pseudomonas aeruginosa = assay: MIC against bacteria, strain B; format: cell-based; conditions: 24 h, 30° C., tested at 100 or 300 mg/liter
# Description: as §1, §2
# Aspergillus phoenicia = assay: MIC against fungi, strain H; format: cell-based; conditions: malt extract agar
# Description: (§3) Determination of the minimum inhibitory concentration (MIC) against fungi
# (§4) The investigation is carried out in malt extract agar (Merck) by the known agar incorporation test using the fungi
# (§5) For inhibition, the various compounds are in each case added in amounts such that concentrations of […] results in the agar. The concentrations (mg/liter) required for inhibition of the growth of the fungi (starting from traces of fungi dripped on) are illustrated in Table D.
# Chlorella vulgaris = assay: Action against Chlorella vulgaris; format: cell-based; set-up: key to Growth in the medium: 1: no growth in the medium, 3 ppm have a growthinhibiting action; key to Growth on the agar: 2: no growth on the agar, 3 ppm have destroyed the algae within 6 hours; conditions: 3 mg/liter; for Growth on the agar: 6 hours exposure (algae-destruction action); for Growth in the medium: 14 days (inhibition of growth)
# Description: Determination of the action against algae
# A Chlorella vulgaris culture grown for 14 days in algae nutrient medium is diluted 1:200 in algae nutrient medium. Each of the compounds listed in Table E is then added such that a concentration of 3 mg/liter results. After incubation for 6 hours, 10 μl are in each case withdrawn and dripped onto algae agar in order to determine the destructive action.
# [1] = tested on: Cladosporium cladosporioides; assay: MIC against fungi, strain K; format: cell-based; conditions: malt extract agar
# Description: as §3, §4
# K Cladosporium cladosporioides
# as §5
# Bacillus subtilis = assay: MIC against bacteria, strain F; format: cell-based; conditions: 24 h, 30° C., tested at 100 or 300 mg/liter
# Description: as §1, §2
# Endomyces geotrichum = assay: MIC against fungi, strain M; format: cell-based; conditions: malt extract agar
# Description: as §3, §4, §5
# [2] = tested on: Alkaligenes denitrificans; assay: MIC against bacteria, strain E; format: cell-based; conditions: 24 h, 30° C., tested at 100 or 300 mg/liter
# Description: as §1, §2
# Candida albicans = assay: MIC against fungi, strain L; format: cell-based; conditions: malt extract agar
# Description: as §3, §4, §5
# Aspergillus niger = assay: MIC against fungi, strain G; format: cell-based; conditions: malt extract agar
# Description: as §3, §4
# Alternaria alternata = assay: MIC against fungi, strain J; format: cell-based; conditions: malt extract agar
# Description: as §3, §4, §5
# Serratia marcenscens = assay: MIC against bacteria, strain D; format: cell-based; conditions: 24 h, 30° C., tested at 100 or 300 mg/liter
# Description: as §1, §2
# Aureobasidium pullulans = assay: MIC against fungi, strain N; format: cell-based; conditions: malt extract agar
# Description: as §3, §4
# N Aureobasidium pullulans
# as §5
# Chaetomium globosum = assay: MIC against fungi, strain O; format: cell-based; conditions: malt extract agar
# Description: as §3, §4, §5
# Penicillium funiculosum = assay: MIC against fungi, strain I; format: cell-based; conditions: malt extract agar
# Description: as §3, §4
# I Penicillium funiculosum
# as §5
# Proteus vulgaris = assay: MIC against bacteria, strain A; format: cell-based; conditions: 24 h, 30° C., tested at 100 or 300 mg/liter
# Description: as §1, §2
# Aureobasidium pullans = assay: Growth on wood; conditions: 28° C., 4 weeks
# Description: Small wooden blocks of spruce, 7×10×10 mm in size, are dried under a vacuum for 30 minutes. The small blocks are then subjected to impregnation under a vacuum, by being left in 20 ml of distilled water and the biocide under vacuum for 30 minutes, and are then exposed to pressure treatment (2 atmospheres gauge by compressed air) in water for 18 hours. The pieces of wood thus treated are either immediately dried or first subjected to bleaching in running water and then dried.
# The small dried pieces of wood are placed on potato glucose agar and the wood and surrounding agar are innoculated with 0.1 ml of a spore suspension of Aureobasidium pullans. After incubation at 28° C. for 4 weeks, the growth is evaluated according to the following plan.
# 4=No growth on the wood, inhibitory zone up to 2 mm
# 5=No growth on the wood, inhibitory zone greater than 2 mm
SMILES,"Action against Artemia salina (Artemia salina; 0.25 mg/liter, 6 hours)","Action against Artemia salina (Artemia salina; 0.25 mg/liter, 24 hours)","Action against Artemia salina (Artemia salina; 0.25 mg/liter, 48 hours)",MIC (Enterobacter aerogenes) [µg/mL],MIC (Pseudomonas aeruginosa) [µg/mL],MIC against fungi (Aspergillus phoenicia) [µg/mL],Growth on the agar (Chlorella vulgaris),Growth in the medium (Chlorella vulgaris),MIC against fungi [1] [µg/mL],MIC (Bacillus subtilis) [µg/mL],MIC against fungi (Endomyces geotrichum) [µg/mL],MIC [2] [µg/mL],MIC against fungi (Candida albicans) [µg/mL],MIC against fungi (Aspergillus niger) [µg/mL],MIC against fungi (Alternaria alternata) [µg/mL],MIC (Serratia marcenscens) [µg/mL],MIC against fungi (Aureobasidium pullulans) [µg/mL],MIC against fungi (Chaetomium globosum) [µg/mL],MIC against fungi (Penicillium funiculosum) [µg/mL],MIC (Proteus vulgaris) [µg/mL],other results
CCCCCCCCCCCCCC[P+](CCCC)(CCCC)CCCC.CCCCCCCCCCCCCC[P+](CCCC)(CCCC)CCCC.[CH3][Sn-2]([CH3])([Cl])([Cl])([Cl])[Cl] [Example 21],1-2,3,3,100,100,50,2,1,10,100,10,100,10,50,50,100,10,10,10,100,"Action against Artemia salina (Artemia salina; 0.5 mg/liter, 6 hours): 1-2; Action against Artemia salina (Artemia salina; 0.5 mg/liter, 24 hours): 2; Action against Artemia salina (Artemia salina; 0.5 mg/liter, 48 hours): 3; Action against Artemia salina (Artemia salina; 1 mg/liter, 6 hours): 1-2; Action against Artemia salina (Artemia salina; 1 mg/liter, 24 hours): 3; Action against Artemia salina (Artemia salina; 1 mg/liter, 48 hours): 3; Action against Artemia salina (Artemia salina; 2.5 mg/liter, 6 hours): 1-2; Action against Artemia salina (Artemia salina; 2.5 mg/liter, 24 hours): 3; Action against Artemia salina (Artemia salina; 2.5 mg/liter, 48 hours): 3"
CCCCCCCCCCCCCC[P+](CCCC)(CCCC)CCCC.[CH3][Sn-]([Cl])([Cl])([Cl])[Cl] [Example 22],0,1-2,2-3,100,100,50,2,1,10,100,10,100,10,50,50,100,10,10,10,100,"Action against Artemia salina (Artemia salina; 0.5 mg/liter, 6 hours): 1-2; Action against Artemia salina (Artemia salina; 0.5 mg/liter, 24 hours): 3; Action against Artemia salina (Artemia salina; 0.5 mg/liter, 48 hours): 3; Action against Artemia salina (Artemia salina; 1 mg/liter, 6 hours): 1-2; Action against Artemia salina (Artemia salina; 1 mg/liter, 24 hours): 3; Action against Artemia salina (Artemia salina; 1 mg/liter, 48 hours): 3; Action against Artemia salina (Artemia salina; 2.5 mg/liter, 6 hours): 1-2; Action against Artemia salina (Artemia salina; 2.5 mg/liter, 24 hours): 3; Action against Artemia salina (Artemia salina; 2.5 mg/liter, 48 hours): 3"
CCCCCCCCCCCCCC[P+](CCCC)(CCCC)CCCC.CCCCCCCCCCCCCC[P+](CCCC)(CCCC)CCCC.[CH3][Sn-2]([Cl])([Cl])([Cl])([Cl])[Cl] [Example 23],0,1-2,2-3,100,100,50,2,1,10,100,10,100,10,50,50,100,10,10,10,100,"Action against Artemia salina (Artemia salina; 0.5 mg/liter, 6 hours): 1-2; Action against Artemia salina (Artemia salina; 0.5 mg/liter, 24 hours): 2-3; Action against Artemia salina (Artemia salina; 0.5 mg/liter, 48 hours): 3; Action against Artemia salina (Artemia salina; 1 mg/liter, 6 hours): 1-2; Action against Artemia salina (Artemia salina; 1 mg/liter, 24 hours): 3; Action against Artemia salina (Artemia salina; 1 mg/liter, 48 hours): 3; Action against Artemia salina (Artemia salina; 2.5 mg/liter, 6 hours): 1-2; Action against Artemia salina (Artemia salina; 2.5 mg/liter, 24 hours): 3; Action against Artemia salina (Artemia salina; 2.5 mg/liter, 48 hours): 3"
CCCCCCCCCCCCCC[P+](CCCC)(CCCC)CCCC.CCC[CH2][Sn-]([Cl])([Cl])([Cl])[Cl] [Example 24],,,,100,100,> 100,2,1,10,100,50,100,50,> 100,> 100,100,10,50,10,100,
CCCCCCCCCCCCCC[P+](CCCC)(CCCC)CCCC.CCCCCCCCCCCCCC[P+](CCCC)(CCCC)CCCC.CCC[CH2][Sn-2]([Cl])([Cl])([Cl])([Cl])[Cl] [Example 25],,,,100,100,> 100,2,1,10,100,10,100,50,100,100,100,10,50,10,100,
OC[P+](CO)(CO)CO.[Cl][Sn-]([Cl])([CH]1CCCCC1)([CH]1CCCCC1)[CH]1CCCCC1 [Example 26],,,,,,,,,,,,,,,,,,,,,"Growth on wood, leached for 5 days (Aureobasidium pullans; 0.01% in H2O): 4 (No growth on the wood, inhibitory zone up to 2 mm); Growth on wood, not leached (Aureobasidium pullans; 0.01% in H2O): 5 (No growth on the wood, inhibitory zone greater than 2 mm); Growth on wood, leached for 5 days (Aureobasidium pullans; 0.05% in H2O): 5 (No growth on the wood, inhibitory zone greater than 2 mm); Growth on wood, not leached (Aureobasidium pullans; 0.05% in H2O): 5 (No growth on the wood, inhibitory zone greater than 2 mm)"
CCCC[P+](CCCC)(CCCC)CCCC.CCC[CH2][Sn-]([Cl])([Cl])([CH2]CCC)[CH2]CCC [Example 45],,,,,,10,2,1,10,,10,,10,10,10,,10,10,10,,
